Assays:
[1] = biological target: T1, Endothelin receptor type B (Homo sapiens, UniProt P24530); test: Antagonist activity towards human recombinant Endothelin B receptor expressed in chinese hamster ovary (CHO) cells determined using [125I]ET1 as radioligand; type: functional, cell-based
T1 sequence (P24530 whole entry): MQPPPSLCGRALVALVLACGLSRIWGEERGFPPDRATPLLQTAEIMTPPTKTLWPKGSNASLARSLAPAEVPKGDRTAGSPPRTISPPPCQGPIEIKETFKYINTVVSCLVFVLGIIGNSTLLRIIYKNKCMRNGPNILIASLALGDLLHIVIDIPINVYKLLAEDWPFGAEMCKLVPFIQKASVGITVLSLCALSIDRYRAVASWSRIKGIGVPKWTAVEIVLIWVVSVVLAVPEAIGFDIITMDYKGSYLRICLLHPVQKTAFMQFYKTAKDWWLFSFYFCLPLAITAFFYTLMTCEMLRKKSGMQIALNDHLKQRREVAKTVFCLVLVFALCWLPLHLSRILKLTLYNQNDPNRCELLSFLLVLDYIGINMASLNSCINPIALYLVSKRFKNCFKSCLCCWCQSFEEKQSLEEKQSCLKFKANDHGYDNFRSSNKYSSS

Endothelin receptor = biological target: T2, Endothelin receptor (Rattus norvegicus, UniProt P26684+P21451); test: Inhibitory potency at native endothelin A and endothelin B receptors by inhibiting endothelin-1 contractions of rat aortic rings; type: functional
T2 sequence (P26684 whole entry): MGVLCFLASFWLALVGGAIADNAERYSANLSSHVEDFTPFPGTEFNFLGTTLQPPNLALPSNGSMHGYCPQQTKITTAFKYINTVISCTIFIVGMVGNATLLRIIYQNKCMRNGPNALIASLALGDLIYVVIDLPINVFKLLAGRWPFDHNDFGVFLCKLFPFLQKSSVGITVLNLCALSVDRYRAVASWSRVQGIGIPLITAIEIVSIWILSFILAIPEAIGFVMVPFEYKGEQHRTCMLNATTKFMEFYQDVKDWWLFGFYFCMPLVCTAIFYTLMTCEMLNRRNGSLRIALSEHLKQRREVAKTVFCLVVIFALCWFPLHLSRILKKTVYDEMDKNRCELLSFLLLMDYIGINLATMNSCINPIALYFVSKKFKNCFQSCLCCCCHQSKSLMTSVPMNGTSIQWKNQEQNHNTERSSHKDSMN
T2 sequence (P21451 whole entry): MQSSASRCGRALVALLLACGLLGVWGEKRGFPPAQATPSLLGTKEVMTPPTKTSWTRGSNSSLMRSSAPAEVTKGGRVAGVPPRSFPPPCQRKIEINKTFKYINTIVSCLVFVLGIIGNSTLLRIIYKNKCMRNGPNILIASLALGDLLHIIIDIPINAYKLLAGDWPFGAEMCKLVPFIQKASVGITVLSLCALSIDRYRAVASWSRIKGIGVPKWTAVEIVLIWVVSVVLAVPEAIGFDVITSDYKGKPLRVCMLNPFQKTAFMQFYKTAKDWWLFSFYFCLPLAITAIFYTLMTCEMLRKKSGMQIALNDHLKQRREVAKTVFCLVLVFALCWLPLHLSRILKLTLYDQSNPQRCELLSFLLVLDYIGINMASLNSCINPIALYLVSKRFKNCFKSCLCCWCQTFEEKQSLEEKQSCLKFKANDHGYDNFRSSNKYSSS

Endothelin-1 receptor = biological target: T3, Endothelin-1 receptor (Homo sapiens, UniProt P25101); test: Antagonist activity towards human recombinant Endothelin A receptor expressed in chinese hamster ovary (CHO) cells determined using [125I]ET1 as radioligand; type: functional, cell-based
T3 sequence (P25101 whole entry): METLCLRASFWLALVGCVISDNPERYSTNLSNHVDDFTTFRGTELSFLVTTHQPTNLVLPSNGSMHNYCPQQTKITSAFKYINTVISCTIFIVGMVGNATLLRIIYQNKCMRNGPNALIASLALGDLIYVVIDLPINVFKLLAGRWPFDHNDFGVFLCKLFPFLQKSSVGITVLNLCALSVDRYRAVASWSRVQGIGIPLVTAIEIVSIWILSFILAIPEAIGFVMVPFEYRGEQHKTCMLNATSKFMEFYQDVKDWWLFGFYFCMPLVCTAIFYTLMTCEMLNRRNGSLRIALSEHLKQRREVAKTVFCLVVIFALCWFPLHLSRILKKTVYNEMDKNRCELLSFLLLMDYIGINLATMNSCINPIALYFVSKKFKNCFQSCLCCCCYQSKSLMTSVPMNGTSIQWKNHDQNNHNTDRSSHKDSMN

Structure (SMILES) | IC50 [1] | pA2 (Endothelin receptor) | IC50 (Endothelin-1 receptor)
COc1ccc(CN2C(=O)CN[C@](c3cccc(-c4ccccc4)c3)([C@H](Oc3nc(C)cc(C)n3)C(=O)O)c3ccccc32)cc1 (racemic) | 86.8 nM | 7.28 | 3 nM
CCc1cccc([C@]2([C@H](Oc3nc(C)cc(C)n3)C(=O)O)NCC(=O)N(Cc3ccc(OC)cc3)c3ccccc32)c1 (racemic) | 68 nM | 7.55 | 3.1 nM
CCCCCCN1C(=O)CN[C@](c2ccccc2)([C@H](Oc2nc(C)cc(C)n2)C(=O)O)c2ccccc21 (racemic) | 39.9 nM | 6.71 | 23.7 nM
Cc1cc(C)nc(O[C@H](C(=O)O)[C@@]2(c3ccccc3)NCC(=O)N(Cc3ccc(OC(F)(F)F)cc3)c3ccccc32)n1 (racemic) | 32.2 nM | 7.59 | 2.5 nM
CCCCc1ccc(CN2C(=O)CN[C@](c3ccccc3)([C@H](Oc3nc(C)cc(C)n3)C(=O)O)c3ccccc32)cc1 (racemic) | 11.1 nM | 7.84 | 3.5 nM
Cc1cc(C)nc(O[C@H](C(=O)O)[C@@]2(c3ccccc3)NCC(=O)N(CCO)c3ccccc32)n1 (racemic) | 108 nM | 6.79 | 6.9 nM
Cc1cc(C)nc(O[C@H](C(=O)O)[C@@]2(c3ccccc3)NCC(=O)N(Cc3c(F)cccc3F)c3ccccc32)n1 (racemic) | 17.7 nM | 7.83 | 1.1 nM
Cc1cc(C)nc(O[C@H](C(=O)O)[C@@]2(c3ccccc3)NCC(=O)N(Cc3cccc(Cl)c3)c3ccccc32)n1 (racemic) | 21.4 nM |  | 5.8 nM
COc1cc(OC)cc(O[C@H](C(=O)O)[C@@]2(c3ccccc3)NCC(=O)N(Cc3c(Cl)cccc3Cl)c3ccccc32)c1 (racemic) | 392 nM |  | 46.2 nM
CCc1cc(CC)nc(O[C@H](C(=O)O)[C@@]2(c3ccccc3)NCC(=O)N(C)c3ccccc32)n1 (racemic) | 654 nM |  | 20.5 nM
Cc1cc(C)nc(O[C@H](C(=O)O)[C@@]2(c3ccccc3)NCC(=O)N(Cc3c(F)cccc3Cl)c3ccccc32)n1 (racemic) | 10.9 nM | 7.8 | 
Cc1cc(C)nc(O[C@H](C(=O)O)[C@@]2(c3ccccc3)NCC(=O)N(Cc3ccc(-c4ccccc4)cc3)c3ccccc32)n1 (racemic) | 534 nM |  | 102 nM
COc1cc(OC)nc(O[C@H](C(=O)O)[C@@]2(c3ccccc3)NCC(=O)N(C)c3ccccc32)n1 (racemic) | 473 nM |  | 23.4 nM
Cc1cc(C)nc(O[C@H](C(=O)O)[C@@]2(c3ccccc3)NCC(=O)N(Cc3cccc(C(F)(F)F)c3)c3ccccc32)n1 (racemic) | 15.6 nM |  | 9.1 nM
COc1ccc(CN2C(=O)CN[C@](c3cccc(F)c3)([C@H](Oc3nc(C)cc(C)n3)C(=O)O)c3ccccc32)cc1 (racemic) | 49.3 nM |  | 9.1 nM
COc1cc(OC)cc(O[C@H](C(=O)O)[C@@]2(c3ccccc3)NCC(=O)N(C)c3cc(OC)ccc32)c1 (racemic) | 7780 nM |  | 3950 nM
Cc1cc(C)cc(O[C@H](C(=O)O)[C@@]2(c3ccccc3)NCC(=O)N(Cc3c(Cl)cccc3Cl)c3ccccc32)c1 (racemic) | 109 nM |  | 20.5 nM
Cc1ccc(CN2C(=O)CN[C@](c3ccccc3)([C@H](Oc3nc(C)cc(C)n3)C(=O)O)c3ccccc32)cc1 (racemic) | 68.8 nM |  | 30.5 nM

The remaining compounds from weak to strong by IC50 [1], led by results:

IC50 [1] | pA2 (Endothelin receptor) | IC50 (Endothelin-1 receptor) | Structure (SMILES)
3700 nM |  | 211 nM | O=C(O)[C@@H](Oc1ccccc1)[C@@]1(c2ccccc2)NCC(=O)N(Cc2c(Cl)cccc2Cl)c2ccccc21 (racemic)
3150 nM |  | 101 nM | O=C(O)[C@@H](Oc1cccc(Cl)c1)[C@@]1(c2ccccc2)NCC(=O)N(Cc2c(Cl)cccc2Cl)c2ccccc21 (racemic)
153 nM |  | 146 nM | Cc1cc(C)nc(O[C@H](C(=O)O)[C@@]2(c3ccccc3)NCC(=O)N(CCC3CCCCC3)c3ccccc32)n1 (racemic)
109 nM |  | 6 nM | Cc1cc(C)nc(O[C@H](C(=O)O)[C@@]2(c3ccccc3)NCC(=O)N(Cc3ccc(F)cc3F)c3ccccc32)n1 (racemic)
105 nM |  | 112 nM | COc1ccc(CN2C(=O)CN[C@](C3CCCCC3)([C@H](Oc3nc(C)cc(C)n3)C(=O)O)c3ccccc32)cc1 (racemic)
74.9 nM |  | 98.6 nM | Cc1cc(C)nc(O[C@H](C(=O)O)[C@@]2(c3ccccc3)NCC(=O)N(Cc3ccccc3OC(F)(F)F)c3ccccc32)n1 (racemic)
73.6 nM |  | 355 nM | CCCCC[C@]1([C@H](Oc2nc(C)cc(C)n2)C(=O)O)NCC(=O)N(Cc2ccc(OC)cc2)c2ccccc21 (racemic)
70.3 nM | 6.98 | 7.4 nM | COC(=O)c1ccc(CN2C(=O)CN[C@](c3ccccc3)([C@H](Oc3nc(C)cc(C)n3)C(=O)O)c3ccccc32)cc1 (racemic)
65.6 nM | 6.99 | 6.6 nM | Cc1cc(C)nc(O[C@H](C(=O)O)[C@@]2(c3ccccc3)NCC(=O)N(Cc3nn[nH]n3)c3ccccc32)n1 (racemic)
49.7 nM | 7.46 | 5.9 nM | Cc1cc(C)nc(O[C@H](C(=O)O)[C@@]2(c3ccccc3)NCC(=O)N(Cc3ccc(F)cc3)c3ccccc32)n1 (racemic)
49.7 nM | 7.93 | 6.5 nM | Cc1cc(C)nc(O[C@H](C(=O)O)[C@@]2(c3ccccc3)NCC(=O)N(Cc3ccc(F)c(F)c3F)c3ccccc32)n1 (racemic)
48.1 nM |  | 10.2 nM | Cc1cc(C)nc(O[C@H](C(=O)O)[C@@]2(c3ccccc3)NCC(=O)N(Cc3ccccc3Cl)c3ccccc32)n1 (racemic)
47.4 nM | 7.32 | 6.4 nM | Cc1cc(C)nc(O[C@H](C(=O)O)[C@@]2(c3ccccc3)NCC(=O)N(Cc3ccccc3)c3ccccc32)n1 (racemic)
30.8 nM |  | 11 nM | Cc1cc(C)nc(O[C@H](C(=O)O)[C@@]2(c3ccccc3)NCC(=O)N(Cc3cccc(OC(F)(F)F)c3)c3ccccc32)n1 (racemic)
28.8 nM | 7.87 | 6.8 nM | Cc1cc(C)nc(O[C@H](C(=O)O)[C@@]2(c3ccccc3)NCC(=O)N(Cc3c(F)c(F)c(F)c(F)c3F)c3ccccc32)n1 (racemic)
24.1 nM |  | 17.1 nM | Cc1cc(C)nc(O[C@H](C(=O)O)[C@@]2(c3ccccc3)NCC(=O)N(Cc3ccc(C(C)(C)C)cc3)c3ccccc32)n1 (racemic)
22.4 nM | 7.08 |  | COc1ccc(CN2C(=O)CN[C@](c3ccccc3)([C@H](Oc3nc(C)cc(C)n3)C(=O)O)c3ccccc32)cc1 (racemic)
21.5 nM | 7.46 | 3.9 nM | Cc1cc(C)nc(O[C@H](C(=O)O)[C@@]2(c3ccccc3)NCC(=O)N(CCc3ccccc3)c3ccccc32)n1 (racemic)
15.5 nM | 8.1 | 6.7 nM | Cc1cc(C)c(CN2C(=O)CN[C@](c3ccccc3)([C@H](Oc3nc(C)cc(C)n3)C(=O)O)c3ccccc32)c(C)c1 (racemic)
6.6 nM | 8.55 | 1.8 nM | Cc1cc(C)nc(O[C@H](C(=O)O)[C@@]2(c3ccccc3)NCC(=O)N(Cc3c(Cl)cccc3Cl)c3ccccc32)n1 (racemic)

— ChEMBL document CHEMBL1149183, “Novel benzo[1,4]diazepin-2-one derivatives as endothelin receptor antagonists” (J Med Chem, 2004)
